Ten compounds from US10674723B2, “1,8-bis(Schiff base)-p-menthane derivatives as well as preparation method and applications thereof” (INSTITUTE OF CHEMICAL INDUSTRY OF FOREST PRODUCTS, CAF, priority 2016, dated 2020) can be followed below.

In the assay the test system is annual ryegrass. The assay is described as follows: Pre-emergence herbicidal activity by the Petri dish seed germination method. The class given is in vivo. Particulars: 25° C., 5 days. The method, then:
Step 2: accurately weigh 1 mmol of the 1,8-bis(Schiff base)-p-menthane derivative and dissolve it in 0.25 mL DMF, and then add a drop of Tween 80 into it; after the product is fully dissolved, the resulting solution is transferred to a 100 mL volumetric flask and is diluted with distilled water to the mark to obtain a solution having a concentration of 10 mmol/L as the mother liquor. Using the two-fold dilution method, a series of diluted sample solutions with different concentrations are prepared with the mother liquor (the concentrations of DMF and Tween 80 in the diluted solutions should be consistent with those in the mother liquor).
The annual ryegrass seeds are soaked with distilled water for 15 h. Place a piece of filter paper on the bottom of a Petri dish (φ9 cm), add 10 mL of the above sample solution having the corresponding concentration into it, respectively, and add the same amount of the mixture of water, DMF and Tween 80 into such a Petri dish as a blank control. Place 10 grains of seeds into each dish. The dishes are then placed in an incubator and cultured at 25° C. for 5 days. The experimental data are analyzed with DPS software, and the inhibition rate of the 1,8-bis(Schiff base)-p-menthane derivative on the root or stem growth of ryegrass seeds is calculated as follows:
[formula] Where: y is the inhibition rate on the root or stem growth, x2 is the root length or stem length of the control sample, and x1 is the root length or stem length of the sample.
1 mmol of the 1,8-bis(2-hydroxyphenylimine)-p-menthane was accurately weighed and dissolved in 0.25 mL DMF; a drop of Tween 80 was then added into it; after the product was fully dissolved, the resulting solution was transferred to a 100 mL volumetric flask and was diluted with distilled water to the mark to obtain a solution having a concentration of 10 mmol/L as the mother liquor. Using the two-fold dilution method, a series of diluted sample solutions with different concentrations (5 mmol/L, 2.5 mmol/L, 1.25 mmol/L, 0.625 mmol/L and 0.3125 mmol/L; the concentrations of DMF and Tween 80 in the diluted solutions should be consistent with those in the mother liquor) were prepared with the mother liquor.
The annual ryegrass seeds were soaked with distilled water for 15 h. Placed a piece of filter paper on the bottom of a Petri dish (φ 9 cm), added 10 mL of the above sample solution having the corresponding concentration into it, respectively, and added the same amount of the mixture of water, DMF and Tween 80 into such a Petri dish as a blank control. 10 grains of seeds were placed into each of the dishes. The dishes were then placed in an incubator and cultured at 25° C. for 5 days.

On to “1,8-bis(p-trifluoromethylphenylimine)-p-menthane”, for which the “inhibition rate on the root growth of ryegrass seeds” value (shortened to “inhibition rate on the root growth”) stood at 35.4% (0.3125 mmol/L solution); 45.5% (0.625 mmol/L solution); 65.8% (1.25 mmol/L solution); 87.5% (2.5 mmol/L solution); 81.7% (5 mmol/L solution); 93.8% (10 mmol/L solution). Besides, the “inhibition rate on the stem growth of ryegrass seeds” value (shortened to “inhibition rate on the stem growth”) (0.3125 mmol/L solution) is 1.1%; the “inhibition rate on the stem growth” value (0.625 mmol/L solution) is listed as 2.4%; the “inhibition rate on the stem growth” value (1.25 mmol/L solution) is on record as 26.0%; the “inhibition rate on the stem growth” value (2.5 mmol/L solution) amounted to 53.7%; the “inhibition rate on the stem growth” value (5 mmol/L solution) is given as 34.8%; the “inhibition rate on the stem growth” value (10 mmol/L solution) stood at 87.9%.
On to 1,8-bis(4-methylphenylimine)-p-menthane, for which the “inhibition rate on the root growth” value was 20.3% (0.3125 mmol/L solution); 26.3% (0.625 mmol/L solution); 34.2% (1.25 mmol/L solution); 67.0% (2.5 mmol/L solution); 92.8% (5 mmol/L solution); 100.0% (10 mmol/L solution). The “inhibition rate on the stem growth” value (0.3125 mmol/L solution) amounted to 11.1%; the “inhibition rate on the stem growth” value (0.625 mmol/L solution) is on record as 25.9%; the “inhibition rate on the stem growth” value (1.25 mmol/L solution) worked out at 26.8%; the “inhibition rate on the stem growth” value (2.5 mmol/L solution) turned out to be 46.2%; the “inhibition rate on the stem growth” value (5 mmol/L solution) stood at 90.4%; the “inhibition rate on the stem growth” value (10 mmol/L solution) turned out to be 100.0%.
Take 1,8-bis(4-bromophenylimine)-p-menthane: the “inhibition rate on the root growth” value by setting is: (0.3125 mmol/L solution) 71.0%; (0.625 mmol/L solution) 88.0%; (1.25 mmol/L solution) 100.0%; (2.5 mmol/L solution) 100.0%; (5 mmol/L solution) 100.0%; (10 mmol/L solution) 100.0%. Besides, the “inhibition rate on the stem growth” value is listed as 64.8% (0.3125 mmol/L solution); 79.5% (0.625 mmol/L solution); 100.0% (1.25 mmol/L solution); 100.0% (2.5 mmol/L solution); 100.0% (5 mmol/L solution); 100.0% (10 mmol/L solution).
Turning to `CC1(N=Cc2c(Cl)cccc2Cl)CCC(C(C)(C)N=Cc2c(Cl)cccc2Cl)CC1` (stereo not drawn) [1,8-bis(2,6-dichlorophenylimine)-p-menthane], the “inhibition rate on the root growth” value is listed as 100.0% (0.3125 mmol/L solution); 100.0% (0.625 mmol/L solution); 100.0% (1.25 mmol/L solution); 100.0% (2.5 mmol/L solution); 100.0% (5 mmol/L solution); 100.0% (10 mmol/L solution). Further, the “inhibition rate on the stem growth” value (0.3125 mmol/L solution) is listed as 100.0%; the “inhibition rate on the stem growth” value (0.625 mmol/L solution) came out at 100.0%; the “inhibition rate on the stem growth” value (1.25 mmol/L solution) was found to be 100.0%; the “inhibition rate on the stem growth” value (2.5 mmol/L solution) is 100.0%; the “inhibition rate on the stem growth” value (5 mmol/L solution) is 100.0%; the “inhibition rate on the stem growth” value (10 mmol/L solution) is on record as 100.0%.
1,8-bis(4-fluorophenylimine)-p-menthane: the “inhibition rate on the root growth” value runs as follows: (0.3125 mmol/L solution) 14.0%; (0.625 mmol/L solution) 35.0%; (1.25 mmol/L solution) 58.0%; (2.5 mmol/L solution) 78.0%; (5 mmol/L solution) 85.5%; (10 mmol/L solution) 94.9%. For the same compound, the “inhibition rate on the stem growth” value stood at 4.5% (0.3125 mmol/L solution); 21.6% (0.625 mmol/L solution); 49.9% (1.25 mmol/L solution); 53.8% (2.5 mmol/L solution); 82.5% (5 mmol/L solution); 94.9% (10 mmol/L solution).
For the compound 1,8-bis(4-chlorophenylimine)-p-menthane, the “inhibition rate on the root growth” value is on record as 94.1% (0.3125 mmol/L solution); 98.0% (0.625 mmol/L solution); 99.3% (1.25 mmol/L solution); 100.0% (2.5 mmol/L solution); 100.0% (5 mmol/L solution); 100.0% (10 mmol/L solution). Besides, the “inhibition rate on the stem growth” value reads like this: (0.3125 mmol/L solution) 75.2%; (0.625 mmol/L solution) 90.3%; (1.25 mmol/L solution) 91.4%; (2.5 mmol/L solution) 98.2%; (5 mmol/L solution) 100.0%; (10 mmol/L solution) 100.0%.
In the case of “1,8-bis(p-methylthiophenylimine)-p-menthane”, the “inhibition rate on the root growth” value is, setting by setting: (0.3125 mmol/L solution) 37.7%; (0.625 mmol/L solution) 46.4%; (1.25 mmol/L solution) 35.4%; (2.5 mmol/L solution) 54.8%; (5 mmol/L solution) 50.3%; (10 mmol/L solution) 67.8%. Further, the “inhibition rate on the stem growth” value by setting is: (0.3125 mmol/L solution) 20.8%; (0.625 mmol/L solution) 28.7%; (1.25 mmol/L solution) 27.1%; (2.5 mmol/L solution) 28.0%; (5 mmol/L solution) 21.9%; (10 mmol/L solution) 36.7%.
“1,8-bis(2-hydroxyphenylimine)-p-menthane”: the “inhibition rate on the root growth” value by setting is: (0.3125 mmol/L solution) 14.3%; (0.625 mmol/L solution) 41.4%; (1.25 mmol/L solution) 62.2%; (2.5 mmol/L solution) 83.3%; (5 mmol/L solution) 100.0%; (10 mmol/L solution) 100.0%. For the same compound, the “inhibition rate on the stem growth” value is 6.9% (0.3125 mmol/L solution); 38.0% (0.625 mmol/L solution); 61.7% (1.25 mmol/L solution); 79.5% (2.5 mmol/L solution); 100.0% (5 mmol/L solution); 100.0% (10 mmol/L solution).
For “1,8-bis(p-dimethylaminophenylimine)-p-menthane”, the “inhibition rate on the root growth” value is listed as 100.0% (0.3125 mmol/L solution); 100.0% (0.625 mmol/L solution); 100.0% (1.25 mmol/L solution); 100.0% (2.5 mmol/L solution); 100.0% (5 mmol/L solution); 100.0% (10 mmol/L solution). For the same compound, the “inhibition rate on the stem growth” value was 96.8% (0.3125 mmol/L solution); 100.0% (0.625 mmol/L solution); 100.0% (1.25 mmol/L solution); 100.0% (2.5 mmol/L solution); 100.0% (5 mmol/L solution); 100.0% (10 mmol/L solution).
Consider “1,8-bis(4-methoxyphenylimine)-p-menthane”, for which the “inhibition rate on the root growth” value came to 12.5% (0.3125 mmol/L solution); 15.5% (0.625 mmol/L solution); 54.3% (1.25 mmol/L solution); 88.3% (2.5 mmol/L solution); 100.0% (5 mmol/L solution); 100.0% (10 mmol/L solution). Further, the “inhibition rate on the stem growth” value is 30.6% (0.3125 mmol/L solution); 32.2% (0.625 mmol/L solution); 48.2% (1.25 mmol/L solution); 73.9% (2.5 mmol/L solution); 100.0% (5 mmol/L solution); 100.0% (10 mmol/L solution).
